Results from publication PMC3173463, “Discovery of Dual-Action Membrane-Anchored Modulators of Incretin Receptors” (PLoS ONE, 2011).
Where no end group is shown, it is not given here.

Legend:
[1] = biological target: T1, GIP-R (Homo sapiens, UniProt P48546); assay: CRE luciferase reporter gene assay, soluble ligands on GIP-R expressing cells; type: cell-based; conditions: soluble peptides, 6 hours stimulation; Figure 3B
T1 construct: expressed in transfected cells; host or cells: HEK293 cells, transient transfection, pcDNA1.1 plasmid
T1 sequence (P48546 22-466): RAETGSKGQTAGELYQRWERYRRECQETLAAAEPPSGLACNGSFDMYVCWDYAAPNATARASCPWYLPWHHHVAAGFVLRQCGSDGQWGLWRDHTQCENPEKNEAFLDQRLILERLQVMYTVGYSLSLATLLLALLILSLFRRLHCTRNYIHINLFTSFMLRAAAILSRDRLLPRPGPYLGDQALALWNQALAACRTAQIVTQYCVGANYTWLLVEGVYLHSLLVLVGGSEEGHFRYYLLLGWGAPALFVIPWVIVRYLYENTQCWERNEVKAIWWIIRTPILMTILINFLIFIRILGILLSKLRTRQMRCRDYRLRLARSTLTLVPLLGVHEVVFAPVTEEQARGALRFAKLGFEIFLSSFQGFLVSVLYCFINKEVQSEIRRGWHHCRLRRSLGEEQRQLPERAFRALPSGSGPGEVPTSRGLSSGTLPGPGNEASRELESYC
Method: HEK293 cells were transiently transfected with cDNAs encoding the indicated receptor and a CRE6X-LUC reporter gene construct. Twenty four hours post-transfection, cells were stimulated for 6 hours with soluble peptides; ligand-induced activity was then quantified.
Receptor-mediated signaling was assessed using a previously described luciferase assay [15], [18]. In brief, HEK293 cells were plated at a density of 3000–6000 cells per well into clear-bottom, white 96-well plates and grown for 1–2 days to ∼80% confluency. Cells were then transiently transfected using Lipofectamine^R reagent (Invitrogen, Carlsbad, CA) with cDNAs encoding (i) a GPCR (or the empty expression vector), (ii) a tethered ligand (where applicable), (iii) the CRE6X-LUC reporter gene and (iv) β-galactosidase (as a control for transfection efficiency). For experiments investigating the agonist function of soluble peptides, tethered ligand cDNA was not included in the transfection reaction. Twenty four hours after transfection, cells were incubated with or without selected soluble peptide in serum-free medium for 6 hours. Following ligand stimulation, the medium was gently aspirated, the cells were lysed and luciferase activity was quantified using a TopCount NTX after addition of Steadylite^R reagent (PerkinElmer, Boston, MA).

[2] = tested on: HA-tagged GIP-R; assay: HA-tagged GIP-R cell surface expression by ELISA; type: cell-based, human; conditions: HEK 293, HA-GIPR, ELISA 48 hours after transfection, soluble ligand added 24 h after transfection; Figure 4A
Method: The impact of soluble peptide (A), tethered ligands (B) and the interaction between soluble and tethered ligands on HA-GIPR surface expression (C) was measured by ELISA. HEK 293 cells were transfected with a plasmid encoding the HA-tagged GIP-R, with or without increasing amounts of a tethered ligand cDNA. Twenty four hours after transfection, soluble ligands were added in selected wells, as indicated. In each experiment, receptor expression was evaluated 48 hours after transfection. […] Data represent the mean ± SEM from at least 4 independent experiments, each performed in 12 replicates. The expression of HA-GIPR in the absence vs presence of soluble or tethered ligand were compared by analysis of variance followed by Dunnett's post-test; significance, *, p<0.05; **, p<0.01.
The surface expression levels of myc-tagged tethered ligands or HA-tagged GIP-Rs were assessed using a previously-established procedure [15], [18]. HEK293 cells grown in 96-well clear Primaria plates (BD Biosciences, Bedford, MA) were transiently transfected with either pcDNA1.1 or a cDNA encoding the relevant epitope-tagged proteins (tethered ligand and/or GIP-R). […] Light absorbance at 450 nm was quantified as a measure of protein expression) using a SpectraMax^R microplate reader.

[3] = biological target: T2, GLP-1R (Homo sapiens, UniProt P43220); assay: CRE luciferase reporter gene assay, membrane-tethered ligand co-transfected with GLP-1R; type: cell-based; conditions: CRE6X-LUC, relative to wild-type tethered construct; Figure 2A-B
T2 construct: expressed in transfected cells; host or cells: HEK293 cells, transient transfection, pcDNA1.1 plasmid
Method: Figure 2 Activity and selectivity of wild-type and G^7/K^7 derivatives of tGLP-1 and tEXE4. […] HEK 293 cells were transiently transfected with cDNAs encoding the GLP-1R or GIP-R, a tethered ligand, and a CRE6X-LUC reporter gene construct. Twenty four hours post-transfection, ligand-induced activity was quantified as described in Methods. […] Data represent the mean ± SEM from at least 4 independent experiments, each performed at least in quadruplicate.
Receptor-mediated signaling was assessed using a previously described luciferase assay, [18]. In brief, HEK293 cells were plated at a density of 3000–6000 cells per well into clear-bottom, white 96-well plates and grown for 1–2 days to ∼80% confluency. […] Following ligand stimulation, the medium was gently aspirated, the cells were lysed and luciferase activity was quantified using a TopCount NTX after addition of Steadylite^R reagent (PerkinElmer, Boston, MA). […] Substrate cleavage (an index of β-galactosidase expression was quantified by measurement of optical density at 420 nm using a SpectraMax^R microplate reader (Molecular Devices, Sunnyvale, CA). Corresponding values were used to normalize the luciferase data for transfection efficiency.

[4] = tested on: GIPR-CHE; assay: Confocal microscopy of GIPR-CHE subcellular distribution; type: cell-based, human; conditions: HEK 293, 18 hours treatment, Figure 5A
Method: The impact of selected soluble peptides (A) and tethered ligands (B) on the subcellular distribution of GIPR-CHE was studied using confocal microscopy. HEK 293 cells were transiently transfected with a plasmid encoding the GIPR-CHE, with or without cDNA encoding a GFP-tagged tethered ligand. Twenty-four hours later, the cells were treated for 18 hours with a soluble peptide or the corresponding vehicle, as indicated. The subcellular distribution of receptor was then visualized.
Cells were transfected with plasmids encoding GIPR-CHE and tEXE4-GFP or tGLP1-GFP. Twenty-four hours later, the cells were treated for 18 h with media containing 100 nM of soluble GIP, followed by confocal microscopy imaging.
HEK293 cells were plated at a density of 150,000 cells per dish onto poly-L-lysine coated 35 mm glass bottom dishes (MatTek Corporation, Ashland, MA) and grown for 1 day to ∼60–80% confluency. Cells were then transfected with cDNA encoding GIPR-CHE and a GFP-tagged tethered ligand construct. In some experiments, soluble peptides were added 24 hours after transfection and cells were incubated at 37°C for an additional 18–24 hours before imaging. Forty eight hours following transfection, the cells were washed once with PBS and fixed with 4% paraformaldehyde in PBS for 10 minutes. […]

T2 sequence (P43220 24-463): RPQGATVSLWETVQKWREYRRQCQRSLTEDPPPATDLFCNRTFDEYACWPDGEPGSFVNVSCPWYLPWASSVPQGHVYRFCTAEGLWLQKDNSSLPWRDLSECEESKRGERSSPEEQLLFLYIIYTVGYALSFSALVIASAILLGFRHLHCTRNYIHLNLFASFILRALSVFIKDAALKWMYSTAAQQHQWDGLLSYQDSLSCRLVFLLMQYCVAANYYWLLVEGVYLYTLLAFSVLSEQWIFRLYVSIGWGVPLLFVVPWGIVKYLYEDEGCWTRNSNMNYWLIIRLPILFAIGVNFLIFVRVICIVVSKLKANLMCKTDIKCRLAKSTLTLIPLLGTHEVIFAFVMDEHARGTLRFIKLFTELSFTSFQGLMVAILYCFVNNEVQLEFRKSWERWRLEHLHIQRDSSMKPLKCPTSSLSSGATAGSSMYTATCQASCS

Substance | agonist activity of soluble peptide at the GIP-R [1] | GIP-R surface expression after prolonged incubation with soluble ligand [2] | tethered ligand-induced activity at the GLP-1R [3] | GIPR-CHE subcellular distribution after soluble peptide [4]
glucagon-like peptide-1 [GLP-1] | even lower potency agonist | no effect | – | –
[G^7]tGLP-1: membrane-tethered GLP-1 with glycine at position 7 (GAEGTFTSDVSSYLEGQAAKEFIAWLVKGRG; also: fused with epitope tag, linkers, membrane-anchoring sequence; UniProt P01275 98-128, looked up, variant H7G) | – | – | activity comparable to the corresponding unmodified ligands | –
glucose-dependent insulinotropic polypeptide [GIP] | – | markedly reduced | – | massive GIPR-CHE endocytosis
